How the values were obtained:
HeLa cells [1] = test: Transwell migration assay, HeLa; format: cell-based, human; conditions: 24 h, 20 μM, control 1176
Procedure: (§1) HeLa (5 × 10^4 cells) was suspended in 200 μL of FBS-free medium. The top chamber contained the vehicle and various concentrations of compound 3k (2.5, 5, and 10 μM), cisplatin (20 μM) and chalcone (20 μM). The lower chamber was filled with 600 μL of medium containing 10% FBS. After incubating at 37 °C for 24 h, the cells on the top side of the Transwell membrane were removed with a cotton tip. Cells were fixed and stained with 4% paraformaldehyde (LEAGENE BIOTECHNOLOGY, Cat:DF0135, Lot:0823A23, Zhongguancun, Haidian District, Beijing, China) and 0.1% crystal violet solutions (Leagene Biotechnology, Cat:DZ0055, Lot:0508A23, Zhongguancun, Haidian District, Beijing, China) for 30 min to fix cells trapped on the perforated side of the membrane.

HeLa cells [2] = test: Transwell Matrigel invasion assay, HeLa; format: cell-based, human; conditions: 24 h, 20 μM
Procedure: (§2) The Transwell ([…], Corning Incorporated, New York, NY, USA) was precoated using 50 μL Matrigel for 5 h at 37 °C to achieve solidification. HeLa cells was collected and suspended in a serum-free medium containing varying concentrations (0, 2.5, 5, and 10 μM) of compound 3k, along with 20 μM cisplatin and chalcone. These cell suspensions were then added to the upper wells of a permeabilization chamber at a density of 5 × 10^5 cells/mL. In the lower wells, 600 μL of DMEM containing 10% FBS was added, which had been prepared using 50 μL of Matrigel (diluted 1:8 with serum-free medium from Corning/BD Biosciences). After 24 h of incubation at 37 °C, the invasion cells were fixed using 4% paraformaldehyde and stained using 0.1% crystal violet for 30 min. Then, the chambers were washed using PBS and left to dry. Images were photographed using an inverted fluorescence microscope (Leica Instruments Co., Ltd., Microsystems CMS GmbH, Weizler, Hesse, Germany) and counted using Image J software (V1.8.0.112) for three independent fields randomly.

HeLa/DDP cells [3] = test: MTT anti-cisplatin-resistant cervical cancer activity, HeLa/DDP; format: cell-based, human; conditions: 48 h; for resistance index (RI): HeLa/DDP versus parental HeLa; for IC50: Homo sapiens, HeLa/DDP, MTT, mean ± SD
Procedure: (§3) All cell types, at a volume of 200 µL per well, were inoculated in 96-well plates at a density of 2.5 × 10^4 cells / mL and cultured for 24 h in an incubator with 5% CO2 at 37 °C. The old culture medium was replaced with 200 µL of fresh medium per well containing positive compounds, at concentrations of 1, 6.25, 12.5, 25, 50, and 100 μM. After 48 h of culture, 20 µL per well of 5 mg·mL^−1 MTT solution was added. After 4 h of culture, the old solution was discarded, and 150 µL per well of DMSO solution was added. Using an enzyme labeler (Thermo Fisher Scientific, Multiskan GO, Waltham, MA, USA), the plates were shaken for 10 min, OD values were determined at 490 nm, and the inhibition rate was calculated. Non-linear regression fitting of the cell growth rate was carried out using SPSS 23.0, and the IC50 of the compound was calculated. The inhibition rate was calculated using the formula: [(ODempty − ODtest)/(ODempty − ODnegative group)] × 100%, (ODempty blank group absorbance, ODtest absorbance of administration group, ODnegative group without cell culture medium). Each group contained six compound holes, and the experimental results averaged three trials. Complete medium containing only cells was used as the blank control; a complete medium without cells as was used as the negative control; and cisplatin, paclitaxel, and adriamycin were used as the positive controls. The concentration gradient was the same as that used for compounds 3a–3p.
To mitigate the detrimental consequences arising from the fixation of resistance reversal agents, concentrations that yielded a tumor cell proliferation rate reduction of less than 10% were selected. Consequently, the inhibitory efficacy of compound 3k against HeLa/DDP cells was assessed in conjunction with cisplatin at concentrations of 0.25, 0.5, and 1 μM. The experimental procedure employed was akin to that elucidated in Section 3.3.2. The impact of verapamil (6 μM) and 3k (0.25, 0.5, and 1 μM) on P-gp expression was ascertained via Western blot experiments, employing the same methodology delineated in Section 3.3.4.

HeLa/DDP cells [4] = test: Annexin V-FITC/PI pro-apoptosis assay, HeLa/DDP; format: cell-based, human; conditions: 24 h, 20 μM
Procedure: Cell fluid (2 mL per well) at a concentration of 1.5 × 10^5 cells / mL was added to a 6-well plate and cultured in a cell incubator with 5% CO2 at 37 °C for 24 h. The old solution was discarded; 2 mL of the medium containing compound 3k was added to each well at a concentration gradient of 2.5, 5, and 10 μM; and the experiment was repeated three times at each concentration. Complete medium containing only cells was used as a blank control group, and 20 μM of cisplatin injection and chalcone was used as a positive control. Cells were harvested following a 24 h incubation period, adhering to the guidelines provided with the BD kit (BD Biosciences Pharmingen, 556547, 10975 Torreyana Road, San Diego, CA, USA). Subsequently, the cells were subjected to staining in a light-restricted environment at ambient temperature for a duration of 15 min, followed by filtration and analysis via flow cytometry.
The pro-apoptotic experiments of compound 3k, cisplatin, and chalcone on HeLa/DDP were performed in the same way as in Section 3.3.3. Western Blotting Analysis in the same way as in Section 3.3.4.

HeLa/DDP cells [5] = test: Transwell migration assay, HeLa/DDP; format: cell-based, human; conditions: 24 h, 20 μM, control 497
Procedure: as §1
(§4) The experimental methods for the effects of compound 3k, cisplatin, and chalcone on HeLa/DDP cell invasion and migration were the same as in Section 3.3.6.

[6] = system: human cervical epithelial cells H8; test: MTT toxicity assay, normal cervical epithelial cells H8; format: cell-based; conditions: Homo sapiens, Epithelial cell, 48 h, mean ± SD
Procedure: as §3

C33A cells = test: MTT anti-proliferation assay, C33A; format: cell-based, human; conditions: Homo sapiens, C-33-A, 48 h, mean ± SD
Procedure: as §3

HeLa/DDP cells [7] = test: Transwell Matrigel invasion assay, HeLa/DDP; format: cell-based, human; conditions: 24 h, 20 μM, control 399
Procedure: as §2, §4

HeLa cells [8] = test: MTT anti-proliferation assay, HeLa; format: cell-based, human; conditions: Homo sapiens, 48 h, mean ± SD
Procedure: as §3, with “3a–3p. […]” for “3a–3p.”

SiHa cells = test: MTT anti-proliferation assay, SiHa; format: cell-based, human; conditions: Homo sapiens, 48 h, mean ± SD
Procedure: as §3

[9] = system: α-tubulin, β-tubulin in HeLa cells; test: Immunofluorescence assay of microtubules, HeLa; format: cell-based, human; conditions: 24 h, 3k 1, 2, and 4 μM, colchicine and paclitaxel 2.0 μM
Procedure: (§5) The cells were then fixed by adding 400 μL of 4% paraformaldehyde to each well and incubating for 30 min. 0.1% Triton was added at a volume of 400 μL per well and allowed to incubate for 10 min. Following this, goat serum (10%) was added at 400 μL per well and incubated for 40 min. Primary antibodies (α-tubulin, β-tubulin) were then incubated overnight at a temperature of 4 °C. Subsequently, secondary antibodies (α-mouse, β-rabbit) were incubated for 1.5 h. DAPI staining was performed at 400 μL per well for 5 min, followed by a wash with PBS. Cell climbing tablets were removed and inverted onto slides with sealer. Photographs were captured using a fluorescent inverted microscope.

[10] = system: α-/β-tubulins in HeLa cells; test: Western blot of polymerized and dissociated α-/β-tubulins, HeLa; format: cell-based, human; conditions: 24 h, versus control; for expression of dissociated state α and β microtubule proteins: 3k 4 μM, colchicine 2 μM, paclitaxel 2.0 μM; for expression of α and β microtubule proteins in the polymerized state: 3k 2 and 4 μM, colchicine and paclitaxel 2.0 μM
Procedure: (§6) HeLa cells were cultured in 60 mm Petri dishes at a density of 1.0 × 10^6 cells per dish and treated with 0.1% DMSO (vehicle), positive control chalcone (20 μM), and different concentrations of compound 3k (2.5, 5, and 10 μM), respectively. Following a 24 and 48 h incubation period, the cells were harvested via centrifugation and subsequently washed twice with PBS that had been chilled to 0 °C. Next, the cells were homogenized using RIPA lysis buffer (Solarbio, Beijing, China) and supplemented with 1% PMSF (MP Biomedicals, 0754-25G, CAS:329-98-6, Santa Ana, CA, USA) and 1% mixed phosphatase inhibitor (Solarbio, Beijing, China). The resulting lysates were then incubated on ice for 30 min, intermittently vortexed every 5 min, and subsequently centrifuged at 12,000 rpm for 20 min to collect the supernatants.
(§7) Subsequently, the protein concentrations were determined utilizing a BCA Protein Assay Kit (Solarbio, China). An equivalent quantity of the proteins (12 μg) was fractionated via 8–12% sodium dodecyl sulfate–polyacrylamide gel electrophoresis (SDS-PAGE) and transferred onto nitrocellulose membranes (Amersham Biosciences, Amersham, UK). Following this, the membranes were obstructed with 5% nonfat dried milk in TBS containing 1% Tween-20 for a duration of 2 h at ambient temperature and were subjected to overnight incubation with specific primary antibodies (CST, Boston, MA, USA) at 4 °C. Following three washes in TBST, the membranes were subjected to incubation with the suitable HRP-conjugated secondary antibodies at ambient temperature for a duration of 2 h. The blots were subsequently visualized using enhanced chemiluminescence (Biosharp, Shanghai, China) and detected utilizing a PE 0723 imager (ProteinSimple, Silicon Valley, CA, USA). Each experiment was conducted in triplicate at minimum and analyzed employing Image J software (V1.8.0.112). β-actin(ab198991) rabbit mAb, goat anti-rabbit IgG (H + L) HRP—#S0001 (Affinity). Bax (ab289364), Bcl-2 (ab218123), MDR1/ABCB1 (E1Y7B) rabbit mAb #13342 (CST).
(§8) Polymerized and free microtubule proteins were extracted using the methods described in references, respectively. Following drug intervention, the cells were subjected to two washes with preheated microtubule protein buffer MTSB at 37 °C. Subsequently, 70 μL of MTSB was added, and the cells were lysed for 10 min at 37 °C in a constant temperature chamber shielded from light. The cells were then scraped with a spatula and centrifuged at 14,000 r/min for 10 min at room temperature. The resulting supernatant, which represented the free state microtubule protein suspension, was subsequently removed. The remaining precipitate was treated with RIPA lysis solution, followed by lysis on ice for a duration of 30 min. Subsequently, centrifugation was performed at a temperature of 4 °C and a speed of 12,000 revolutions per minute for a duration of 20 min. The resulting supernatant was collected as a suspension of polymerized microtubule protein. The Western blotting procedure was the same as in Section 3.3.4. α-Tubulin (DM1A) Mouse mAb#3873 (CST), β-Tubulin (D2N5G) Rabbit mAb #15115 (CST), CoraLite488-conjugated Goat Anti-Mouse lgG(H+L) (Proteintech); CoraLite488-conjugated Goat Anti-Rabbit lgG(H+L) (Proteintech); β-actin(ab198991) rabbit mAb, Goat Anti-Mouse IgG H&L (HRP) (ab6789); Goat anti-Rabbit IgG (H+L) HRP—#S0001 (Affinity).

[11] = system: α-tubulin, β-tubulin in HeLa/DDP cells; test: Immunofluorescence assay of microtubules, HeLa/DDP; format: cell-based, human; conditions: 24 h, 3k 1, 2, and 4 μM, paclitaxel 2.0 μM
Procedure: as §5

[12] = system: α-/β-tubulins in HeLa/DDP cells; test: Western blot of polymerized and dissociated α-/β-tubulins, HeLa/DDP; format: cell-based, human; conditions: 24 h, versus control; for expression of dissociated state α and β microtubule proteins: 3k 4 μM, colchicine and paclitaxel 2.0 μM; for expression of polymerized state α and β microtubule proteins: positive drugs 2.0 μM
Procedure: as §6, §7, §8

Structure (SMILES) | number of migrated cells (HeLa cells [1]) | number of cells undergoing invasion (HeLa cells [2]) | resistance index (RI) (HeLa/DDP cells [3]) | IC50 (HeLa/DDP cells [3]) [µM] | pro-apoptotic rate (HeLa/DDP cells [4]) [%] | number of migrated cells (HeLa/DDP cells [5]) | IC50 [6] [µM] | IC50 (C33A cells) [µM] | number of invasion cells (HeLa/DDP cells [7]) | IC50 (HeLa cells [8]) [µM] | IC50 (SiHa cells) [µM] | microtubule immunofluorescence (α green, β red) [9] | expression of dissociated state α and β microtubule proteins [10] | expression of α and β microtubule proteins in the polymerized state [10] | microtubule immunofluorescence (α green, β red) [11] | expression of dissociated state α and β microtubule proteins [12] | expression of polymerized state α and β microtubule proteins [12]
O=C(/C=C/c1ccccc1)c1ccccc1 [Chalcone, (E)-chalcone] | 689 | 422 | 1.31 | 88 ± 7.27 | 13.8 | 319 | 78.5 ± 7.78 | 37.5 ± 1.5 | 347 | 67 ± 4.56 | 62 ± 1.84 |  |  |  |  |  | 
CC(=O)O[C@H]1C(=O)[C@@]2(C)[C@H]([C@H](OC(=O)c3ccccc3)[C@]3(O)C[C@H](OC(=O)[C@H](O)[C@@H](NC(=O)c4ccccc4)c4ccccc4)C(C)=C1C3(C)C)[C@]1(OC(C)=O)CO[C@@H]1C[C@@H]2O [Paclitaxel, paclitaxel] |  |  | 5.66 | 130 ± 5.84 |  |  |  |  |  | 23 ± 1.33 |  | fluorescence intensity of microtubules surrounding the cells decreased or vanished | significantly decreased | significantly enhanced | no significant alteration in the fluorescence intensity of the microtubules surrounding the cells | minimal impact | did not yield a significant impact
COc1cc2c(c(OC)c1OC)-c1ccc(OC)c(=O)cc1[C@@H](NC(C)=O)CC2 [colchicine] |  |  |  |  |  |  |  |  |  |  |  |  | significantly increased | decrease |  | increase | significant decrease

Source: PMC10707934, “Design and Synthesis of Novel α-Methylchalcone Derivatives, Anti-Cervical Cancer Activity, and Reversal of Drug Resistance in HeLa/DDP Cells” (Molecules, 2023)
